Experimental data reported in US9782401B1, “Method of isolating phenanthroindolizidine alkaloids from Tylophora atrofolliculata with HIF-1 inhibitory activity, compositions comprising them and their use” (priority 2016, dated 2017).
Where two headings read alike, the source gives them in different places.

How the values were obtained:
[1] = Cytotoxicity by MTT assay against T47D cells; details: human
Description: (§1) All experiments were independently performed at least three times.

HIF-1 [2] = biological target: T1, HIF-1 (Homo sapiens, UniProt Q16665); experiment: HIF-1-mediated reporter gene assay in T47D cells (HRE-luciferase, hypoxia-induced HIF-1 activation); type: cell-based; design: endogenous in cells; host or cells: T47D cells (American Type Culture Collection)
T1 sequence (Q16665 whole entry): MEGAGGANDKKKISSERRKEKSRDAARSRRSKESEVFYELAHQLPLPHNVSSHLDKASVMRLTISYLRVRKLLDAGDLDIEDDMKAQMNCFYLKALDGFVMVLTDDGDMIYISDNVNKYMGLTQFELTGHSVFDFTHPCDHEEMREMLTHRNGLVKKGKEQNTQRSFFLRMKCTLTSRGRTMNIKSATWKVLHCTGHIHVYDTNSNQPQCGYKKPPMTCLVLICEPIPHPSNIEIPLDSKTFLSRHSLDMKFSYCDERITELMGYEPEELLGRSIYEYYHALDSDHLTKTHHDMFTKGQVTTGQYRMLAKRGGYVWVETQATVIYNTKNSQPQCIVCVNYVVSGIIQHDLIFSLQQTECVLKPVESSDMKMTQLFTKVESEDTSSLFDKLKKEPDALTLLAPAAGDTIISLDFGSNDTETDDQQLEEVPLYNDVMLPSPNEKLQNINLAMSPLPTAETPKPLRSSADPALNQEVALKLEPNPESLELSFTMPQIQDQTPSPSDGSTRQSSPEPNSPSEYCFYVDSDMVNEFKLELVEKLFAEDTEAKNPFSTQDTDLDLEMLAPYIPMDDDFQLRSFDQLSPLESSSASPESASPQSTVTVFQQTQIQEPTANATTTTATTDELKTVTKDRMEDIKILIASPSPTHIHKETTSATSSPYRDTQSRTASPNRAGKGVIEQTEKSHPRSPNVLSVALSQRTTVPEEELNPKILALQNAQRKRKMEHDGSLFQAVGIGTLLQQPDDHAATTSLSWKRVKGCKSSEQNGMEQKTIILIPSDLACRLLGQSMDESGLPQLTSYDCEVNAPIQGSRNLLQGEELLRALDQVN
Experimental: The HIF-1-mediated reporter gene assay in T47D cells was performed according to a previous protocol with minor modification (Parhira, S. et al., Sci. Rep., 2014, 4, 4748). T47D cells (American Type Culture Collection) were cultured in DMEM medium (Invitrogen), supplemented with 10% (v/v) fetal serum (FBS) (Invitrogen), 100 U/mL penicillin, and 100 μg/mL streptomycin (Invitrogen) in a humidified atmosphere (5% CO2 and 95% air) at 37° C. Cells (5×10^6) were co-transfected with the HRE-luciferase (Addgene) and Renilla plasmids using Lipofectamine 2000 (Invitrogen) according to the manufacturer's protocol. The transfected cells were seeded in 96-well plates with a density of 5×10^4/well and cultured in DMEM with 10% FBS overnight. After addition of the test compounds with different concentrations, the cells were incubated for 1 h, and then exposed to hypoxic (2% O2/5% CO2/93% N2) or normoxic (5% CO2/95% air) conditions at 37° C. for 20 h. Then the cells were lysed, and luciferase assay was performed using a Dual-Luciferase® reporter assay (Promega) kit according to the instructions of the manufacturer. Luciferase activities of both HRE and Renilla were determined by a multimode reader (Infinite 200 PRO, Teacan). HIF-1 transcriptional activity was shown by the ratio of firefly/Renilla luciferase activity. IC50 values were determined from the dose-response curves using Prism software. The data were repeated by three independent experiments.

HIF-1 [3] = biological target: T1, HIF-1; details: literature value (Hodges et al. 2004; Cai et al. 2006); read-out: HIF-1 inhibition IC50 (literature); cited from earlier work
T47D cells = experiment: Cytotoxicity by MTT assay against T47D cells; details: read-out: Cytotoxicity against T47D cells IC50 (nM) Hypoxic; T47D cells, hypoxic conditions, MTT assay
Description: as §1

[4] = T47D cells, Cytotoxicity against T47D cells IC50 (nM) Hypoxic, hypoxic conditions, MTT assay
[5] = T47D cells, Cytotoxicity against T47D cells IC50 (nM) Normoxic, normoxic conditions, MTT assay
[6] = T47D human breast tumor cells, HIF-1 activation induced by hypoxia (2% O2, 20 h), means±SD, read-out: HIF-1 activation inhibitory activity IC50 (nM) T47D
[7] = Cytotoxicity against T47D cells IC50 (nM) Hypoxic, T47D cells, hypoxic conditions, MTT assay
[8] = Cytotoxicity against T47D cells IC50 (nM) Normoxic, T47D cells, normoxic conditions, MTT assay

In the case of COc1ccc2c3c(c4cc(OC)c(OC)cc4c2c1)CN1O[C@@H](CC(C)=O)CC[C@H]1[C@H]3O (single isomer, unassigned) [compound 3, 12S, 14aS, 15S-11-oxa-12-(2-oxopropyl)-hydroxyboehmeriasin A], the IC50 [1, 4] is reported as over 20000 nM, the IC50 [1, 5] is reported as over 10000 nM and the IC50 (HIF-1 [2]; [6]) is reported as 2660 ± 1810 nM.
In the case of COc1ccc([C@@H](O)[C@@H](C)Oc2ccc([C@H]3O[C@H](c4ccc(O[C@H](C)[C@H](O)c5ccc6c(c5)OCO6)c(OC)c4)[C@H](C)[C@H]3C)cc2OC)cc1OC [Manassantin B], the IC50 (HIF-1 [3]) is given as 3 nM.
Work on COc1ccc2c3c(c4cc(OC)c(O)cc4c2c1)CN1C(=O)CC[C@H]1[C@H]3O [compound 1, 11-keto-tylophorinidine] yielded an IC50 (HIF-1 [2]) of over 10000 nM.
In the case of COc1cc2c3c(c4cc(O)c(OC)cc4c2cc1O)CC1CCCN1C3 (stereo not shown) [compound 4, 2-hydroxyl deoxytylophorinidine], the IC50 [1, 7] is reported as over 500 nM, the IC50 [1, 8] is reported as over 500 nM and the IC50 (HIF-1 [2]) is reported as 19 ± 2 nM.
COc1cc2c3c(c4cc(O)c(OC)cc4c2cc1O)C(O)C1CCCN1C3 (stereo not shown) [compound 5, 2-hydroxyl tylophorinidine] gave an IC50 [1, 4] of over 250 nM, an IC50 [1, 5] of over 250 nM and an IC50 (HIF-1 [2]) of 10 nM.
In the case of COc1cc2c3c(c4ccc(O)cc4c2cc1O)[C@@H](O)[C@@H]1CCC[N@@+]1([O-])C3 [compound 6, 10R, 14R-3-O-demethyl tylophorinidine N-oxide], the IC50 [1, 4] is reported as over 200 nM, the IC50 [1, 5] is reported as over 200 nM and the IC50 (HIF-1 [2]; [6]) is reported as 50 ± 35 nM.
COc1cc2c3c(c4cc(O)c(OC)cc4c2cc1O)[C@@H](O)[C@H]1CCC[N@+]1([O-])C3 [compound 7, 10S, 13aR, 14R-2-hydroxyl tylophorinidine N-oxide] showed an IC50 [1, 4] of over 1000 nM, an IC50 [1, 5] of over 1000 nM and an IC50 (HIF-1 [2]; [6]) of 37 ± 8 nM.
COc1cc2c(cc1O)c1c(c3cc(OC)c(OC)cc32)C[N@+]2([O-])CCC[C@H]2[C@@H]1O [compound 8, 10R-2-hydroxyl tylophorinine N-oxide] showed an IC50 [1, 4] of over 1000 nM, an IC50 [1, 5] of over 1000 nM and an IC50 (HIF-1 [2]) of 170 ± 106 nM.
In the case of COc1cc2c(cc1O)c1c(c3cc(OC)c(OC)cc32)CN2CCC[C@@H]2[C@@H]1O [compound 9, 13aR-2-hydroxyl tylophorinine], the IC50 [1, 7] is reported as over 2000 nM, the IC50 [1, 8] is reported as over 2000 nM and the IC50 (HIF-1 [2]) is reported as 489 ± 108 nM.
For COc1cc2c3c(c4cc(OC)c(OC)cc4c2cc1OC)[C@H](O)[C@@H]1CCC[N@@+]1([O-])C3 [compound 10, 10R, 13aS, 14S-14-hydroxytylophorine N-oxide], the IC50 [1, 4] was over 2000 nM, the IC50 [1, 5] was over 2000 nM and the IC50 (HIF-1 [2]; [6]) was 441 nM.
COc1cc2c3c(c4cc(OC)c(OC)cc4c2cc1OC)C[N@+]1([O-])CCC[C@H]1C3 [compound 11, 10R, 13aS-tylophorine N-oxide] showed an IC50 [1, 4] of over 2000 nM, an IC50 [1, 5] of over 2000 nM and an IC50 (HIF-1 [2]; [6]) of 930 nM.
In the case of COc1ccc2c3c(c4cc(OC)c(OC)cc4c2c1)C[N@+]1([O-])CCC[C@H]1C3 [compound 12, 10R-deoxytylophorinine N-oxide], the IC50 [1, 7] is reported as over 2000 nM, the IC50 [1, 8] is reported as over 1000 nM and the IC50 (HIF-1 [2]) is reported as 254 nM.
Molecule COc1cc2c3c(c4ccc(O)cc4c2cc1O)[C@H](O)[C@@H]1CCCN1C3 [compound 13, 3-O-demethyl tylophorinidine] has an IC50 [1, 4] of over 250 nM, an IC50 [1, 5] of over 250 nM and an IC50 (HIF-1 [2]) of 10 nM.
For COc1ccc2c3c(c4cc(OC)c(O)cc4c2c1)CN1CCC[C@H]1[C@H]3O [compound 14, tylophorinidine], the IC50 [1, 4] was over 100 nM, the IC50 [1, 5] was over 10 nM and the IC50 (HIF-1 [2]) was 4 nM.
COc1cc2c3c(c4ccc(O)cc4c2cc1OC)[C@H](O)[C@@H]1CCCN1C3 [compound 15, trans-(+)-3,14a-dihydroxy-6,7-dimethoxyphenanthroindolizidine] gave an IC50 [1, 4] of over 250 nM, an IC50 [1, 5] of over 250 nM and an IC50 (HIF-1 [2]; [6]) of 6 ± 3 nM.
COc1ccc2c3c(c4cc(OC)c(O)cc4c2c1)C[N+]1([O-])CCC[C@H]1[C@H]3O (stereo partly shown) [compound 16, tylophoridicine C] gave an IC50 [1] of over 100 nM, an IC50 (T47D cells) of over 100 nM and an IC50 (HIF-1 [2]) of 25 nM.
COc1ccc2c3c(c4cc(OC)c(OC)cc4c2c1)C[N+]1([O-])CCC[C@@H]1[C@@H]3O (stereo partly shown) [compound 17, tylophorinine N-oxide] showed an IC50 [1] of over 100 nM, an IC50 (T47D cells) of over 100 nM and an IC50 (HIF-1 [2]) of 3 nM.
Work on COc1ccc2c3c(c4cc(OC)c(OC)cc4c2c1)CN1CCC[C@H]1[C@@H]3O [compound 18, tylophorinine] yielded an IC50 [1, 7] of over 500 nM, an IC50 [1, 8] of over 500 nM and an IC50 (HIF-1 [2]) of 19 nM.
With COc1cc2c3c(c4cc(OC)c(OC)cc4c2cc1OC)CN1CCC[C@H]1C3 [compound 19, 13aS-tylophorine] the IC50 [1, 7] was over 2000 nM, the IC50 [1, 8] was over 1000 nM and the IC50 (HIF-1 [2]) was 438 nM.
In the case of COc1ccc2c3c(c4cc(OC)c(OC)cc4c2c1)CN1CCC[C@H]1C3 [compound 20, deoxytylophorinine], the IC50 [1, 7] is reported as over 15000 nM, the IC50 [1, 8] is reported as over 600 nM and the IC50 (HIF-1 [2]) is reported as 115 nM. The “times more potent than its dehydrogenated product (22)” value (HIF-1 [2]; compound (20) versus (22), HIF-1 IC50) was “at least 8 times”.
Molecule COc1ccc2c3c(c4cc(OC)c(OC)cc4c2c1)CN1CCC[C@H]1[C@H]3O [compound 21, O-methyl-tylophorindine] has an IC50 [1, 7] of over 12500 nM, an IC50 [1, 8] of over 500 nM and an IC50 (HIF-1 [2]) of 13 nM.
Work on COc1ccc2c(c1)c1cc(OC)c(OC)cc1c1c[n+]3c(cc21)CCC3 [compound 22, tylophoridicine D] yielded an IC50 (HIF-1 [2]) of over 10000 nM.
